One assay addresses T1, NFκB (Homo sapiens, UniProt Q04206).
T1 construct: endogenous in cells; host or cells: HeLa cells (ATCC), nuclear extract
Description: NFκB assay (EZ-Detect Transcription Factor Assay kit; TNF-α-treated HeLa cells, nuclear extracts). The format is cell-based. The procedure: To assess the ability of natural product extracts and compounds to inhibit the specific binding of activated NFκB transcription factor to the biotinylated consensus sequence, the EZ-Detect™ Transcription Factor Assay kit (Pierce Biotechnology) was used according to the kit manual and established protocol. HeLa cells (ATCC) were treated with each test sample and TNF-α, nuclear extracts harvested using the NE-PER kit (Pierce Biotechnology), and protein content equilibrated using the Pierce BCA Protein Assay kit (Pierce Biotechnology). Specific binding was detected through quantification of chemiluminescent signal in a plate reader (FLUOstar Optima, BMG Labtechnologies GmbH, Inc.).

The target of another assay is T2, PPAR-γ (Homo sapiens, UniProt P37231).
T2 construct: endogenous in cells; host or cells: CCD-112CoN normal colon cells or HeLa cells (ATCC), nuclear extract
T2 sequence (P37231 1-505): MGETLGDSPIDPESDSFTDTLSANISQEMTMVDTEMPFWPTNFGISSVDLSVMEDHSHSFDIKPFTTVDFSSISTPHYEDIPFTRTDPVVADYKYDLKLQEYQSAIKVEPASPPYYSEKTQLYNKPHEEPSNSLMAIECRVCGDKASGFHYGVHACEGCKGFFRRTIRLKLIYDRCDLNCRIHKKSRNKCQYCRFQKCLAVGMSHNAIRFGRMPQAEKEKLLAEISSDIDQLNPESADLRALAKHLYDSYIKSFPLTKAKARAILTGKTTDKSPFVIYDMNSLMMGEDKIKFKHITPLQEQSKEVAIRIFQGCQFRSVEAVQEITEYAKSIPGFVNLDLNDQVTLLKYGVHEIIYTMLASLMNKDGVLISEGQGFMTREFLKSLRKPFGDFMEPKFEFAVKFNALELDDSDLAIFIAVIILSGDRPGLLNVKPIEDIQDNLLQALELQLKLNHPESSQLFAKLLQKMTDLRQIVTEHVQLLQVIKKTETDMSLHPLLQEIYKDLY
Description: PPAR-γ ELISA assay (PPAR-α,γ,δ Complete Transcription Factor Assay Kit; CCD-112CoN or Hela cells, nuclear extracts). The assay is classed as cell-based. The procedure:
To evaluate the ability of natural product extracts and compounds to induce specific binding of PPAR-γ transcription factor in nuclear extracts to immunosorbed peroxisome proliferator response element, the PPAR-α,γ,δ Complete Transcription Factor Assay Kit (Cayman Chemical Company) was used according to the kit protocol. 303 CCD-112CoN normal colon cells or Hela cells (ATCC) were treated with mace extracts or isolated compounds for 24 h, nuclear extracts were harvested using the NE-PER kit (Pierce Biotechnology), and protein content equilibrated using the Pierce BCA Protein Assay kit (Pierce Biotechnology). Specific binding was detected through quantification of absorptivity at 630 nm in a BioTek uQuant microplate reader (BioTek Instruments, Inc.). […] Licarin A derivatives 45-48 were screened through the panel of in vitro assays to evaluate their potential as antidiabetic compound leads. […] Methods for the assay were as described above.
(ELISA stands for enzyme-linked immunosorbent assay.)

The next assay concerns PPAR-γ expression. As to the kind of experiment: Larval diabetic zebrafish assay, Western blot of PPAR-γ. The assay is classed as in vivo. As to conditions: diabetic zebrafish larvae, 10 μM. The procedure:
Western blot analysis of zebrafish expression levels for glycated hemoglobin, metabolic enzymes, and molecular targets NFκB and PPAR-γ was performed to evaluate potential lead improvement and to discover possible mechanisms of action.
Wild-type zebrafish were sorted into 24-well microplates with 10 fish per well for a four-phase treatment cycle. At 72 hpf, type 2 diabetes was induced by administering 0.5 mg/mL alloxan in fish water for percutaneous absorption. […] At 78 hpf, the incubation solution was changed to 10 mg/ml D-glucose for 30 minutes, followed by a phase-four rinse in fresh system w Following the four-phase treatment cycle, zebrafish treatment groups were snap frozen in microcentrifuge tubes on dry ice, stored overnight at −80° C., thawed, and homogenized with 2 μL PBS per animal. Following centrifugation (60 minutes at 4° C. and 17,000 rpm), protein content of the homogenate supernatant was determined using the Pierce BCA Protein Assay kit (Pierce Biotechnology). Homogenates were analyzed by Western blot with equal amounts of total protein (20 μg) in each sample and using 4×LDS loading buffer (NuPAGE Life Technologies).
(§1) Electrophoresis was performed with NuPAGE MES SDS Running Buffer and using the XCell SureLock Mini-Cell Electrophoresis System (Life Technologies). Proteins separated on the gel were transferred to a PVDF membrane using TBST buffer. The blots were blocked in 3% BSA in TBST and subsequently probed overnight with primary antibodies (1:1000 in 1% BSA in TBST) against each target of interest. Following TBST rinses, secondary HRP-conjugated antibodies (1:2000) were applied to the membrane for 60 minutes. The HRP conjugated antibodies were detected using SuperSignal West Femto chemiluminescent substrate (Pierce Biotechnology) and immunoblot images were captured using the luminometer and Lumi Analyst 3.0 software.
(§2) Band densities were determined using ImageJ Gel Analysis to determine expression levels of each protein of interest. Expression levels of HbA1C, PPAR-γ, and NFκB were organized into a bar graphs (FIG. 5) with band densities calculated in comparison to the housekeeping gene β-actin, normalized to the untreated diabetic group (B) of zebrafish. […].

In a further assay the test system is NFκB p65 expression. Description: Larval diabetic zebrafish assay, Western blot of NFκB p65. The format is in vivo. The note with it: duplicate Western blot (FIG. 9), diabetic zebrafish larvae, 10 μM. The procedure: (§3) Following isolation, derivatization, and analysis of compounds 41-48 through the in vitro panel of assays, the mace natural products and licarin A derivatives were investigated in the larval diabetic zebrafish assay for potential antidiabetic activity. Western blot analysis of zebrafish expression levels for glycated hemoglobin, metabolic enzymes, and molecular targets NFκB and PPAR-γ was performed to evaluate potential lead improvement and to discover possible mechanisms of action.
Wild-type zebrafish were sorted into 24-well microplates with 10 fish per well for a four-phase treatment cycle. […] Following centrifugation (60 minutes at 4° C. and 17,000 rpm), protein content of the homogenate supernatant was determined using the Pierce BCA Protein Assay kit (Pierce Biotechnology). Homogenates were analyzed by Western blot with equal amounts of total protein (20 μg) in each sample and using 4×LDS loading buffer (NuPAGE Life Technologies). […]
Electrophoresis was performed with NuPAGE MES SDS Running Buffer and using the XCell SureLock Mini-Cell Electrophoresis System (Life Technologies). […] The HRP conjugated antibodies were detected using SuperSignal West Femto chemiluminescent substrate (Pierce Biotechnology) and immunoblot images were captured using the luminometer and Lumi Analyst 3.0 software. […]
In general terms: In western blotting, separated proteins are transferred to a membrane and probed.

The test system of the next assay is PEPCK expression. Description: Larval diabetic zebrafish assay, Western blot of PEPCK. The assay is classed as in vivo. The note with it: duplicate Western blot (FIG. 10), diabetic zebrafish larvae, 10 μM. On the procedure:
as §3
(§4) Wild-type zebrafish were sorted into 24-well microplates with 10 fish per well for a four-phase treatment cycle. At 72 hpf, type 2 diabetes was induced by administering 0.5 mg/mL alloxan in fish water for percutaneous absorption. After three hours of alloxan treatment, phase two of the treatment cycle was initiated by administering 10 μM doses of natural product compounds 41-43 (FIG. 4) or derivatives 45-48 (FIG. 6) with 0.01% DMSO in system water. At 78 hpf, the incubation solution was changed to 10 mg/ml D-glucose for 30 minutes, followed by a phase-four rinse in fresh system w Following the four-phase treatment cycle, zebrafish treatment groups were snap frozen in microcentrifuge tubes on dry ice, stored overnight at −80° C., thawed, and homogenized with 2 μL PBS per animal. Following centrifugation (60 minutes at 4° C. and 17,000 rpm), protein content of the homogenate supernatant was determined using the Pierce BCA Protein Assay kit (Pierce Biotechnology). Homogenates were analyzed by Western blot with equal amounts of total protein (20 μg) in each sample and using 4×LDS loading buffer (NuPAGE Life Technologies). The immunoblot samples were heated at 95° C. for 5 minutes and loaded onto NuPAGE Bis-Tris 4-12% gradient SDS-PAGE gels.
as §1, §2

Assay [1] relates to HbA1C (glycated hemoglobin) expression. As to the kind of experiment: Larval diabetic zebrafish assay, Western blot of HbA1C. The format is in vivo. The note with it: duplicate Western blot (FIG. 7), diabetic zebrafish larvae, 10 μM. The procedure:
as §3, §4, §1, §2

In the next assay the test system is GLUT-4 expression. As to the kind of experiment: Larval diabetic zebrafish assay, Western blot of GLUT-4. The format is in vivo. The note with it: duplicate Western blot (FIG. 11), diabetic zebrafish larvae, 10 μM. On the procedure: as §3
Wild-type zebrafish were sorted into 24-well microplates with 10 fish per well for a four-phase treatment cycle. At 72 hpf, type 2 diabetes was induced by administering 0.5 mg/mL alloxan in fish water for percutaneous absorption. After three hours of alloxan treatment, phase two of the treatment cycle was initiated by administering 10 μM doses of natural product compounds 41-43 (FIG. 4) or derivatives 45-48 (FIG. 6) with 0.01% DMSO in system water. […] Following centrifugation (60 minutes at 4° C. and 17,000 rpm), protein content of the homogenate supernatant was determined using the Pierce BCA Protein Assay kit (Pierce Biotechnology). Homogenates were analyzed by Western blot with equal amounts of total protein (20 μg) in each sample and using 4×LDS loading buffer (NuPAGE Life Technologies). […]
Electrophoresis was performed with NuPAGE MES SDS Running Buffer and using the XCell SureLock Mini-Cell Electrophoresis System (Life Technologies). […] The HRP conjugated antibodies were detected using SuperSignal West Femto chemiluminescent substrate (Pierce Biotechnology) and immunoblot images were captured using the luminometer and Lumi Analyst 3.0 software.
as §2

Setting [2] is: Table 13, tested at 50, 5, 0.5 and 0.05 μg/mL.
Where [3] appears, read: Table 20 summary, read-out: NFκBIC50.
Where [4] appears, read: Table 19, licarin A derivatives at 50 μg/mL in Hela cells.

From patent US20250011296A1, “MODULATORS OF MOLECULAR TARGETS EXPRESSED IN METABOLIC AND INFLAMMATORY DISORDERS” (Ohio State Innovation Foundation, priority 2021, published 2025) come the findings set out here.

Structures are written as SMILES. “Also recorded” adds a separate entry of the source. Read-outs that look alike come from different tables or passages of the source.

T1 sequence (Q04206 whole entry): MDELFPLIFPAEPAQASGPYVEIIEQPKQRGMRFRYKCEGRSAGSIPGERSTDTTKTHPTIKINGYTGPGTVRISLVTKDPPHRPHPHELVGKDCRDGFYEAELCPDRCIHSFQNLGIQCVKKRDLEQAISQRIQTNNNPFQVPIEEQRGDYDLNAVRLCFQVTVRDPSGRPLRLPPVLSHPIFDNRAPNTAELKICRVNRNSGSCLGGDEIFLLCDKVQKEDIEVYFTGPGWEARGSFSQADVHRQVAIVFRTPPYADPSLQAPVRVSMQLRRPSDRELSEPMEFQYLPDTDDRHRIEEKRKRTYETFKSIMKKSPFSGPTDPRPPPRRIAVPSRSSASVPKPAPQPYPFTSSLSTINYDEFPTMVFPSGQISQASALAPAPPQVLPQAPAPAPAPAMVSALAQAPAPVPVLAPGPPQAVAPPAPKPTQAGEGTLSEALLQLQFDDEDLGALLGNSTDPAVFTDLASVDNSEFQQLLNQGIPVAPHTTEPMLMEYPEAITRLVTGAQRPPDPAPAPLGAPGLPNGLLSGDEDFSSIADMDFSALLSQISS

As for `C=CCc1cc(OC)c(O[C@H](C)[C@@H](O)c2ccc3c(c2)OCO3)c(OC)c1` [Compound 43, erythro-8,4′-oxyneolign-8′-ene], the IC50 on NFκB (setting [2]), on NFκB (setting [3]) and on NFκB (in vitro NFκB assay) was 64.4 nM in each case. Moreover, the PPAR-γ % activation at PPAR-γ (Table 14, isolates at 50 μg/mL) was below 50%; at PPAR-γ (Table 20 summary, 50 μg/mL), below 50%. Also, the “PPAR-γ expression (band density)” value in the assay on PPAR-γ expression (preliminary Western blot (FIG. 4/5)) was “greater PPAR-γ expression that 41”.

As for `COc1cc([C@H]2Oc3c(OC)cc(C=O)cc3[C@@H]2C)ccc1OC(C)C` [Compound 46, isopropoxy-licarin A carbaldehyde], the “NFκB p65 expression (band density)” value in the assay on NFκB p65 expression is reported as “lower levels of NFκB”. Further, the PPAR-γ % activation on PPAR-γ (setting [4]) is listed as 29%; on PPAR-γ (Table 20 summary, 50 μg/mL) it was 29%. Further, at PPAR-γ (preliminary screening, 50 μg/mL), the “PPAR-γ activity in vitro” value is recorded as “no significant PPAR-γ activity in vitro”. Moreover, in the assay on PEPCK expression, the “PEPCK expression (band density)” value was “indicated a return to normoglycemia”. In addition, the “HbA1C expression (band density)” value in assay [1] is “most effective test samples for decreasing HbA1C; also recorded: significant reduction of HbA1C expression”.

Turning to `CCOC(=O)Oc1ccc([C@H]2Oc3c(OC)cc(C=O)cc3[C@@H]2C)cc1OC` [Compound 48, licarin A formyl ethyl carbonate], the “NFκB p65 expression (band density)” value in the assay on NFκB p65 expression is on record as “lower levels of NFκB”. Besides, the PPAR-γ % activation at PPAR-γ (setting [4]) turned out to be 0%; at PPAR-γ (Table 20 summary, 50 μg/mL) it was 0%. Further, the “GLUT-4 expression (band density)” value in the assay with GLUT-4 expression is “significantly increased capacities for glucose uptake”. Besides, the “PEPCK expression (band density)” value with PEPCK expression is on record as “retained low PEPCK expression”. Moreover, the “HbA1C expression (band density)” value in assay [1] was “did not reduce HbA1C expression”.

As to `C/C=C/c1ccc(O[C@H](C)[C@@H](OC(C)=O)c2ccc3c(c2)OCO3)c(OC)c1` [Compound 44, maceneolignan J], the IC50 at NFκB (setting [2]), at NFκB (setting [3]) and against NFκB (in vitro NFκB assay) was 0.1 nM throughout.

For the compound `C/C=C/c1cc(OC)c2c(c1)[C@H](C)[C@@H](c1ccc(OC(=O)OCC)c(OC)c1)O2` [Compound 47, licarin A ethyl carbonate], the “NFκB inhibitory activity in vitro” value on NFκB (HeLa cells) is on record as “only weak NFκB inhibitory activity”. Besides, the PPAR-γ % activation on PPAR-γ (setting [4]) is on record as 0%; at PPAR-γ (Table 20 summary, 50 μg/mL), 0%. Also, the “GLUT-4 expression (band density)” value with GLUT-4 expression is listed as “significantly increased capacities for glucose uptake”. In addition, in the assay on PPAR-γ expression (duplicate Western blot (FIG. 8)), the “PPAR-γ expression (band density)” value is “performed surprisingly well”. The “PEPCK expression (band density)” value in the assay with PEPCK expression is given as “retained low PEPCK expression”. Besides, the “HbA1C expression (band density)” value in assay [1] is “did not reduce HbA1C expression”.

For the compound `C/C=C/c1cc(OC)c2c(c1)[C@H](C)[C@@H](c1ccc(OC(C)C)c(OC)c1)O2` [Compound 45, isopropoxy-licarin A], the PPAR-γ % activation on PPAR-γ (setting [4]) worked out at 57%; at PPAR-γ (Table 20 summary, 50 μg/mL) it was 57%. Moreover, the “PEPCK expression (band density)” value in the assay on PEPCK expression is recorded as “indicated a return to normoglycemia”. For the same compound, in assay [1], the “HbA1C expression (band density)” value is “did not reduce HbA1C expression”.
